Measurements: PMC4426668, “De novo synthesis of a sunscreen compound in vertebrates” (eLife, 2015)

Tests used:
Format in all cases: biochemical
[1] = molecular target: T1, ValA (ShEEVS) (Streptomyces hygroscopicus, UniProt H2K887); test: TLC and GC-MS of product; details: positive control enzyme; 4 mM SH7P, 1 mM NAD+, 0.1 mM CoCl2 or ZnSO4, 20 mM Tris-HCl pH 7.5, 30 °C, 2 h
T1 construct: N-terminal His6 tag (pRSETB-valA), expressed in E. coli BL21 GOLD (DE3) pLysS, Ni-NTA purified

[2] = molecular target: T2, LOC100003999 (zebrafish EEVS, DrEEVS) (Danio rerio, UniProt A0ACD6B5C7); test: TLC; GC-MS of silylated product against authentic EEV (cell-free extract); details: 4 mM SH7P, 1 mM NAD+, 0.1 mM CoCl2 or ZnSO4, pH 7.5, 30 °C
T2 construct: N-terminal His6 tag (pRSET-B), codon-optimised synthetic gene, expressed in E. coli BL21 GOLD (DE3) pLysS, Ni-NTA purified

[3] = molecular target: T3, MT-Ox (zgc:113054) (Danio rerio, UniProt A0ACM8Q6W2); test: product (gadusol) detection by (-)-ESI-MS; details: SAM and NAD+ present; 30 °C
T3 construct: gene wu:fd55e12; bifunctional full-length protein (N-terminal SAM methyltransferase domain, C-terminal NAD+ oxidoreductase domain), N-terminal His6 tag (pRSET-B), codon-optimised, E. coli, Ni-NTA purified
T3 sequence (A0ACM8Q6W2 1-551): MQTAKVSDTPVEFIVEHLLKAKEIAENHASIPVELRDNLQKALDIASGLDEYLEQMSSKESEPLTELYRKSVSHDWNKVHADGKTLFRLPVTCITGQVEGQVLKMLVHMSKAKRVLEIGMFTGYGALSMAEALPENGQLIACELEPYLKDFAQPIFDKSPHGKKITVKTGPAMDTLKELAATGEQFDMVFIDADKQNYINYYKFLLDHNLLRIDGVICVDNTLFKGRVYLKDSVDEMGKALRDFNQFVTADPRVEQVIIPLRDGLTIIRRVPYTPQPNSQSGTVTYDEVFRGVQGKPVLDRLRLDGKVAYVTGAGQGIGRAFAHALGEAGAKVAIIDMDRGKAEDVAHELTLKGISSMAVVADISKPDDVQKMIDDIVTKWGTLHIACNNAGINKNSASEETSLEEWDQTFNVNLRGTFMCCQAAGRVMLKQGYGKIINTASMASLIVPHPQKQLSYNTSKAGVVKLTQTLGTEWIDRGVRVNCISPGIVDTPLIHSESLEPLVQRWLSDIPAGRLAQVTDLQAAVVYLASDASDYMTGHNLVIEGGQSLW

[4] = molecular target: T3, MT-Ox (zgc:113054); test: product (gadusol) detection by HPLC-UV and (-)-ESI-MS; details: methyl donor, 5 mM; NAD+ 2 mM, CoCl2 0.2 mM, phosphate pH 7.4, 30 °C
[5] = molecular target: T2, LOC100003999 (zebrafish EEVS, DrEEVS); test: product detection by TLC; GC-MS with cell-free extract; details: 4 mM SH7P, 1 mM NAD+, 0.1 mM CoCl2 or ZnSO4, 20 mM Tris-HCl pH 7.5, 30 °C, 2 h

T1 sequence (H2K887 whole entry): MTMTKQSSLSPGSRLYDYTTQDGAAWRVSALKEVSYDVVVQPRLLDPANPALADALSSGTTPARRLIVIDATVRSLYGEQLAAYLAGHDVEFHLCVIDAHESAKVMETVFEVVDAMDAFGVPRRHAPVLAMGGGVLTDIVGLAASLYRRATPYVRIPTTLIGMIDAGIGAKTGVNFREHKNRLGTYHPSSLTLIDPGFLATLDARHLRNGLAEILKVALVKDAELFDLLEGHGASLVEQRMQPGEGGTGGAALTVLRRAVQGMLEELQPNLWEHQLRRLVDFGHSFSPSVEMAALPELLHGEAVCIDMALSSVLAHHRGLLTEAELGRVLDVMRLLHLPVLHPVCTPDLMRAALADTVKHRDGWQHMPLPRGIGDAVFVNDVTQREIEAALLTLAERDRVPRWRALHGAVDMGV
T2 sequence (A0ACD6B5C7 1-470): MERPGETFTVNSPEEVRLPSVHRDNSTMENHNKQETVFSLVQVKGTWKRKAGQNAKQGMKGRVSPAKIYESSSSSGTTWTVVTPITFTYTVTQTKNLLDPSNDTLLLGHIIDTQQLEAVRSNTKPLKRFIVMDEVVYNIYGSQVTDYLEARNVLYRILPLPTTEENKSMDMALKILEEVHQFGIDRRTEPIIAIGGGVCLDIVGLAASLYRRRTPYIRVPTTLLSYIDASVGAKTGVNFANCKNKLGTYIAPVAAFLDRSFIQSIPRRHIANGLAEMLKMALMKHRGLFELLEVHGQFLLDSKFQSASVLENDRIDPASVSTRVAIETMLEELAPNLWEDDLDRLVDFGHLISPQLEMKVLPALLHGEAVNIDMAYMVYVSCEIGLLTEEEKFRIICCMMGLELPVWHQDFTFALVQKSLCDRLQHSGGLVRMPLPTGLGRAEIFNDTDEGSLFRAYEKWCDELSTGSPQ

| Compound | TLC and GC-MS of product [1] | TLC; GC-MS of silylated product against authentic EEV (cell-free extract) [2] | product (gadusol) detection by (-)-ESI-MS [3] | product (gadusol) detection by HPLC-UV and (-)-ESI-MS [4] | product detection by TLC; GC-MS with cell-free extract [5] |
| --- | --- | --- | --- | --- | --- |
| O=C1C[C@@](O)(CO)[C@@H](O)[C@H](O)[C@@H]1O [2-epi-5-epi-valiolone] | TLC analysis of enzymatic products of purified ValA and purified LOC100003999 | confirmed by thin-layer chromatography (TLC) and GC-MS to be EEV | Synthetic EEV incubated with purified MT-Ox | – | – |
| C[S+](CC[C@H](N)C(=O)O)C[C@H]1O[C@@H](n2cnc3c(N)ncnc32)[C@H](O)[C@@H]1O (stereo partly drawn) [S-adenosylmethionine] | – | – | – | incubated with EEV in the presence of SAM and NAD^+ | – |
| O=P(O)(O)OC[C@@H](O)[C@H]1OC(O)(CO)[C@@H](O)[C@@H]1O (stereo partly drawn) [sedoheptulose 7-phosphate] | ValA (instead of LOC100003999) was used as a positive control | – | – | – | Incubation of the recombinant protein with SH7P gave a product |
